# Legend:
# [1] = test system: SW620 cells (KRAS G12V); test: Cell-based pERK HTRF assay in SW620 cell (Biological Example 4); conditions: Homo sapiens, SW-620, SW620 (KRAS G12V) cells, pERK HTRF
# Outline: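 SW620 (KRAS G12V) cells seeded at 3×10^4/well in RPMI, 10% FBS, then treated next day for 4 h with a 9-point half-log series from 1 μM top (0.25% DMSO). Lysates analyzed for pERK by HTRF (Eu cryptate/d2 antibodies, 4–24 h at room temperature), excitation 320 nm, emission 615 nm.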
# [2] = target: T1, Avi-KRAS G12D (1-169) GppNHp/RAF1 RBD-3xFLAG (52-151) (Homo sapiens, UniProt P01116, G12D); test: Raf1-KRAS G12D-GppNHP disruption HTRF assay (Biological Example 1); format: binding
# T1 construct: Avi-KRAS G12D (1-169)
# T1 sequence (P01116 1-169 isoform P01116-2 G12D): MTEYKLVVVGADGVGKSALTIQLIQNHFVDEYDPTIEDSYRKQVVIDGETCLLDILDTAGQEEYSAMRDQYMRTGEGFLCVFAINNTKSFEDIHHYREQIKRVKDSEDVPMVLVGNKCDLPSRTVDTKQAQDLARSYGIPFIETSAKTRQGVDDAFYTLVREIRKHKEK
# Outline: (§1)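 Protein mix, 1 h RT, 700 rpm; reagent mix, 1 h RT, 700 rpm; HTRF read. Buffer Tris pH 7.5/NaCl/MgCl2/BSA/Tween, 10% DMSO. Output % activity, DMSO = 100%.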
# [3] = test system: GP2d cells (KRAS G12D); test: Cell-based pERK HTRF assay in GP2d cell (Biological Example 2); conditions: GP2d, GP2d (KRAS G12D) cells, pERK HTRF
# Outline: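 HTRF read-out of pERK (excitation 320 nm, emission 615 nm) after lysates sat 4–24 h at room temperature with Eu cryptate and d2 antibodies.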
# [4] = target: T2, Avi-KRAS G12V (1-169) GppNHp/RAF1 RBD-3xFLAG (52-151) (Homo sapiens, UniProt P01116, G12V); test: Raf1-KRAS G12V-GppNHP disruption HTRF assay (Biological Example 1); format: binding
# T2 construct: Avi-KRAS G12V (1-169)
# T2 sequence (P01116 1-169 isoform P01116-2 G12V): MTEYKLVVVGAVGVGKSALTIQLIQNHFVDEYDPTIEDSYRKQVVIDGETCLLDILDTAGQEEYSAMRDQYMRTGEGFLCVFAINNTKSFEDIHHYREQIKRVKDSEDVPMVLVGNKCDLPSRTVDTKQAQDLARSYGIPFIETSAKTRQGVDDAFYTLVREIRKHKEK
# Outline: as §1
# [5] = target: T3, Avi-KRAS WT (1-169) GppNHp/RAF1 RBD-3xFLAG (52-151) (Homo sapiens, UniProt P01116); test: Raf1-KRAS WT-GppNHP disruption HTRF assay (Biological Example 1); format: binding
# T3 construct: Avi-KRAS WT (1-169)
# T3 sequence (P01116 1-169 isoform P01116-2): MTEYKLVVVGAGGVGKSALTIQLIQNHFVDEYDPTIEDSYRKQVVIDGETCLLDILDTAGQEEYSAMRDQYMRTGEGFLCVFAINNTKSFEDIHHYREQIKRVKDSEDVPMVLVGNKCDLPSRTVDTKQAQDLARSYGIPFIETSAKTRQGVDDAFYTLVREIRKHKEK
# Outline: as §1
# [6] = target: T4, Avi-KRAS G12R (1-169) GppNHp/RAF1 RBD-3xFLAG (52-151) (Homo sapiens, UniProt P01116, G12R); test: Raf1-KRAS G12R-GppNHP disruption HTRF assay (Biological Example 1); format: binding
# T4 construct: Avi-KRAS G12R (1-169)
# T4 sequence (P01116 1-169 isoform P01116-2 G12R): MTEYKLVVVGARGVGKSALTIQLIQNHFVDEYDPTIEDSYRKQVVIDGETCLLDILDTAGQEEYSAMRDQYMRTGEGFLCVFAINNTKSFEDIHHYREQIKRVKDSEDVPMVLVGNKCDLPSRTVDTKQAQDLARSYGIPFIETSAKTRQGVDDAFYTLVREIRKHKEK
# Outline: as §1
# [7] = KRAS G12D, GppNHp-loaded, class symbols
# [8] = KRAS G12V, GppNHp-loaded, class symbols
# [9] = KRAS WT, GppNHp-loaded, class symbols
# [10] = KRAS G12R, GppNHp-loaded, class symbols
Structure (SMILES),IC50 [1] [nM],IC50 ([2]; KRAS G12D-GppNHp/RAF1 RBD HTRF) [nM],IC50 [3] [nM],IC50 ([4]; KRAS G12V-GppNHp/RAF1 RBD HTRF) [nM],IC50 ([5]; KRAS WT-GppNHp/RAF1 RBD HTRF) [nM],IC50 ([6]; KRAS G12R-GppNHp/RAF1 RBD HTRF) [nM],IC50 ([1]; class symbols) [nM],"IC50 [2, 7] [nM]",IC50 ([3]; class symbols) [nM],"IC50 [4, 8] [nM]","IC50 [5, 9] [nM]","IC50 [6, 10] [nM]","IC50 ([2]; KRAS G12D, GppNHp-loaded, Table 11) [nM]","IC50 ([4]; KRAS G12V, GppNHp-loaded, Table 11) [nM]","IC50 ([5]; KRAS WT, GppNHp-loaded, Table 11) [nM]","IC50 ([6]; KRAS G12R, GppNHp-loaded, Table 11) [nM]"
CN1CC(F)(F)C[C@H]1COc1nc(N2CC3CC(C2)O3)c2cc(C(F)(F)F)c(-c3ccc(F)c4sc(N)c(C#N)c34)c(F)c2n1 [Compound 498],> 1000,> 10000,> 1000,> 10000,> 10000,> 10000,,,,,,,,,,
CN(c1nc(OC[C@@]23CCCN2C[C@H](F)C3)nc2c(F)c(-c3ccc(F)c4sc(N)c(C#N)c34)c(C(F)(F)F)cc12)[C@@H]1CC(=O)N2CCC[C@H]12 [Compound 479],< 100,100 to 1000,< 100,100 to 1000,100 to 1000,100 to 1000,,,,,,,,,,
"C[C@@H]1Cn2nncc2CN1c1nc(OC[C@@]23CCCN2C[C@H](F)C3)nc2c(F)c(-c3ccc(F)c4sc(N)c(C#N)c34)c(C(F)(F)F)cc12 (atropisomer, axis not shown) [Compound 530]",< 100,100 to 1000,< 100,100 to 1000,100 to 1000,100 to 1000,,,,,,,,,,
CCC(=O)N1CC[C@](C)(N(C)c2nc(OC[C@@]34CCCN3C[C@H](F)C4)nc3c(F)c(-c4ccc(F)c5sc(N)c(C#N)c45)c(C(F)(F)F)cc23)C1 [Compound 506],< 100,100 to 1000,< 100,1000 to 10000,1000 to 10000,1000 to 10000,,,,,,,,,,
CC(=O)N1C[C@@H]2CCCN(c3nc(OC[C@@]45CCCN4C[C@H](F)C5)nc4c(F)c(-c5ccc(F)c6sc(N)c(C#N)c56)c(C(F)(F)F)cc34)[C@@H]2C1 [Compound 451],100 to 1000,100 to 1000,< 100,1000 to 10000,100 to 1000,1000 to 10000,,,,,,,,,,
[2H]C1([2H])CN2C[C@H](F)C[C@]2(COc2nc(N(C)[C@@H]3CCN(C(=O)C4CC4)[C@@H]3C)c3cc(C(F)(F)F)c(-c4ccc(F)c5sc(N)c(C#N)c45)c(F)c3n2)C1 [Compound 522],< 100,100 to 1000,< 100,100 to 1000,< 100,< 100,,,,,,,,,,
CN(c1nc(OC[C@@]23CCCN2C[C@H](F)C3)nc2c(F)c(-c3ccc(F)c4sc(N)c(C#N)c34)c(C(F)(F)F)cc12)C12CC(CO)(C1)C2 [Compound 351],< 100,100 to 1000,< 100,1000 to 10000,100 to 1000,100 to 1000,,,,,,,,,,
CN(C)C(=O)[C@H]1CN(c2nc(OC[C@@]34CCCN3C[C@H](F)C4)nc3c(F)c(-c4ccc(F)c5sc(N)c(C#N)c45)c(C(F)(F)F)cc23)CCO1 [Compound 465],< 100,< 100,< 100,100 to 1000,100 to 1000,100 to 1000,,,,,,,,,,
C[C@H]1COC[C@H](C)N1c1nc(OC[C@@]23CCCN2C[C@H](F)C3)nc2c(F)c(-c3ccc(F)c4sc(N)c(C#N)c34)c(C(F)(F)F)cc12 [Compound 200],100 to 1000,,< 100,,,,,,,,,,1000 to 10000,1000 to 10000,1000 to 10000,1000 to 10000
CCC(=O)N1C[C@@H](N(C)c2nc(OC[C@@]34CCCN3C[C@H](F)C4)nc3c(F)c(-c4ccc(F)c5sc(N)c(C#N)c45)c(C(F)(F)F)cc23)C[C@@H]1C [Compound 435],< 100,100 to 1000,< 100,100 to 1000,100 to 1000,100 to 1000,,,,,,,,,,
CN(c1nc(OC[C@@]23CCCN2C[C@H](F)C3)nc2c(F)c(-c3ccc(F)c4sc(N)c(C#N)c34)c(C(F)(F)F)cc12)[C@@H]1C[C@@H]2COC(=O)N2C1 [Compound 450],< 100,100 to 1000,< 100,100 to 1000,100 to 1000,100 to 1000,,,,,,,,,,
N#Cc1c(N)sc2c(F)ccc(-c3c(C(F)(F)F)cc4c(N5CCn6cnnc6C5)nc(OC[C@@]56CCCN5C[C@H](F)C6)nc4c3F)c12 [Compound 294],100 to 1000,100 to 1000,100 to 1000,100 to 1000,100 to 1000,100 to 1000,,,,,,,,,,
CC(=O)N1C2CCC1CN(c1nc(OC[C@@]34CCCN3C[C@H](F)C4)nc3c(F)c(-c4ccc(F)c5sc(N)c(C#N)c45)c(C(F)(F)F)cc13)C2 [Compound 438],< 100,100 to 1000,< 100,1000 to 10000,100 to 1000,100 to 1000,,,,,,,,,,

# Second part, the molecule after the results:
IC50 [1] [nM],IC50 ([2]; KRAS G12D-GppNHp/RAF1 RBD HTRF) [nM],IC50 [3] [nM],IC50 ([4]; KRAS G12V-GppNHp/RAF1 RBD HTRF) [nM],IC50 ([5]; KRAS WT-GppNHp/RAF1 RBD HTRF) [nM],IC50 ([6]; KRAS G12R-GppNHp/RAF1 RBD HTRF) [nM],IC50 ([1]; class symbols) [nM],"IC50 [2, 7] [nM]",IC50 ([3]; class symbols) [nM],"IC50 [4, 8] [nM]","IC50 [5, 9] [nM]","IC50 [6, 10] [nM]","IC50 ([2]; KRAS G12D, GppNHp-loaded, Table 11) [nM]","IC50 ([4]; KRAS G12V, GppNHp-loaded, Table 11) [nM]","IC50 ([5]; KRAS WT, GppNHp-loaded, Table 11) [nM]","IC50 ([6]; KRAS G12R, GppNHp-loaded, Table 11) [nM]",Structure (SMILES)
,,,,,,< 100,< 100,< 100,< 100,< 100,< 100,,,,,"CCN(c1nc(OC[C@@]23CCCN2C[C@H](F)C3)nc2c(F)c(-c3ccc(F)c4sc(N)c(C#N)c34)c(C(F)(F)F)cc12)[C@H]1CCN(C(=O)c2cn(C)nn2)C1 (atropisomer, axis not shown) [Compound 725]"
,,,,,,100 to 1000,1000 to 10000,100 to 1000,1000 to 10000,1000 to 10000,1000 to 10000,,,,,"CN(C)C(=O)N1CC[C@H]2[C@@H]1CN2c1nc(OC[C@@]23CCCN2C[C@H](F)C3)nc2c(F)c(-c3ccc(F)c4sc(N)c(C#N)c34)c(C(F)(F)F)cc12 (atropisomer, axis not shown) [Compound 728]"
,,,,,,< 100,< 100,< 100,< 100,< 100,< 100,,,,,CCN(c1nc(OCC23CCCN2CC(F)C3)nc2c(F)c(-c3ccc(F)c4sc(N)c(C#N)c34)c(C(F)(F)F)cc12)C1CCN(C(=O)c2ccccn2)C1 (stereo not drawn) [Compound 737]
,,,,,,< 100,< 100,< 100,< 100,< 100,< 100,,,,,"CCN(c1nc(OC[C@@]23CCCN2C[C@H](F)C3)nc2c(F)c(-c3ccc(F)c4sc(N)c(C#N)c34)c(C(F)(F)F)cc12)[C@H]1CCN(C(=O)[C@@H]2C[C@H]2C)C1 (atropisomer, axis not shown) [Compound 690]"
,,,,,,< 100,< 100,< 100,< 100,< 100,< 100,,,,,"CCN(c1nc(OC[C@@]23CCCN2C[C@H](F)C3)nc2c(F)c(-c3ccc(F)c4sc(N)c(C#N)c34)c(C(F)(F)F)cc12)[C@H]1CCN(C(=O)[C@H](C)CO)C1 (atropisomer, axis not shown) [Compound 746]"
,,,,,,< 100,< 100,< 100,< 100,< 100,< 100,,,,,"CCN(c1nc(OC[C@@]23CCCN2C[C@H](F)C3)nc2c(F)c(-c3ccc(F)c4sc(N)c(C#N)c34)c(C(F)(F)F)cc12)[C@H]1CCN(C(=O)[C@H]2C[C@H]2F)C1 (atropisomer, axis not shown) [Compound 750]"
,,,,,,< 100,< 100,< 100,< 100,< 100,< 100,,,,,"CCN(c1nc(OC[C@@]23CCCN2C[C@H](F)C3)nc2c(F)c(-c3ccc(F)c4sc(N)c(C#N)c34)c(C(F)(F)F)cc12)[C@H]1CCN(C(=O)c2cnco2)C1 (atropisomer, axis not shown) [Compound 708]"
< 100,< 100,< 100,< 100,< 100,< 100,,,,,,,,,,,"CCN(c1nc(OC[C@@]23CCCN2C[C@H](F)C3)nc2c(F)c(-c3ccc(F)c4sc(N)c(C#N)c34)c(C(F)(F)F)cc12)[C@H]1CCN(C(=O)C2CCC2)C1 (atropisomer, axis not shown) [Compound 551]"
